Data reported in PMC7089965 (Frontiers in Microbiology, 2020).
≈ marks a conversion by molar mass, not a printed value. Where two headings read alike, the source gives them in different places. Where a SMILES comes first, the peptide text is derived from it. [ ]: non-standard residue; d: D form. Nspe = C[C@H](NCC(=O)O)c1ccccc1; NHexGly = CCCCCCNCC(=O)O; Nlys = NCCCCNCC(=O)O

What was measured:
M. bovis BCG = settings: broth microdilution, 10^6 CFU/mL, 7 days, 37°C, OD595 and visual
[1] = test system: MDR clinical isolate M. tuberculosis CSU87; settings: broth microdilution, 10^6 CFU/mL, 7 days, 37°C, OD595 and visual
M. tuberculosis CSU87 = settings: 7 days, CFU enumeration, three independent experiments

SMILES | MIC BCG (M. bovis BCG) [µg/mL] | MIC CSU87 [1] [µg/mL] | killing of CSU87 (M. tuberculosis CSU87; 2 × MIC (8 mg/L)) [%] | killing of CSU87 (M. tuberculosis CSU87; 4 × MIC (16 mg/L)) [%]
CCCCCCNCC(=O)N(CC(=O)N(CCCCN)CC(N)=O)[C@@H](C)c1ccccc1 [BM 1] | 16 to 32 | – | – | –
CCCCCCNCC(=O)N(CC(=O)N(CCCCN)CC(=O)N(CCCCCC)CC(=O)N(CC(=O)N(CCCCN)CC(N)=O)[C@@H](C)c1ccccc1)[C@@H](C)c1ccccc1 [BM 2] (H-[NHexGly][Nspe][Nlys][NHexGly][Nspe][Nlys]-NH2) | 2 to 4 | 4 (≈ 4.55 µM) | > 99 | 99.9
CCCCCCNCC(=O)N(CC(=O)N(CCCCN)CC(=O)N(CCCCCC)CC(=O)N(CC(=O)N(CCCCN)CC(=O)N(CCCCCC)CC(=O)N(CC(=O)N(CCCCN)CC(N)=O)[C@@H](C)c1ccccc1)[C@@H](C)c1ccccc1)[C@@H](C)c1ccccc1 [BM 3] (H-[NHexGly][Nspe][Nlys][NHexGly][Nspe][Nlys][NHexGly][Nspe][Nlys]-NH2) | 4 to 8 | 16 (≈ 12.2 µM) | – | –
